Data taken from patent US10206394B2, “Herbicidal compounds” (Syngenta Participations AG, priority 2014, dated 2019).
Where two headings read alike, the source gives them in different places.

Experiments:
Test in all cases: Glasshouse assay for herbicidal activity (pre- and post-emergence), percentage phytotoxicity
Type in all cases: in vivo
[1] = system: Alopecurus myosuroides (ALOMY); details: Alopecurus myosuroides
Summary of the method: (§1)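 Pot-grown plants treated one day after sowing (pre-emergence) or at about 12 days (post-emergence); glasshouse at 24/18° C (warm) or 20/16° C (cool species) day/night, 16 h light, 65% humidity. Visual % phytotoxicity (0 = none, 100 = total damage) scored at 15 DAA post or 20 DAA pre.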

Avena fatua (AVEFA) = details: Avena fatua
Summary of the method: as §1

[2] = system: Echinochloa crus-galli (ECHCG); details: Echinochloa crus-galli
Summary of the method: as §1

Lolium perenne (LOLPE) = details: Lolium perenne
Summary of the method: as §1

[3] = post-emergence, 360 h, POST-emergence, rate 250 g/ha, visual score 15 DAA (100%=total damage, 0%=no damage), read-out: Post-emergence herbicidal activity (percentage phytotoxicity) ALOMY POST
[4] = pre-emergence, 480 h, PRE-emergence, rate 250 g/ha, visual score 20 DAA (100%=total damage, 0%=no damage), read-out: Pre-emergence herbicidal activity (percentage phytotoxicity) ALOMY PRE
[5] = post-emergence, 360 h, POST-emergence, rate 250 g/ha, visual score 15 DAA (100%=total damage, 0%=no damage), read-out: Post-emergence herbicidal activity (percentage phytotoxicity) AVEFA POST
[6] = pre-emergence, 480 h, PRE-emergence, rate 250 g/ha, visual score 20 DAA (100%=total damage, 0%=no damage), read-out: Pre-emergence herbicidal activity (percentage phytotoxicity) AVEFA PRE
[7] = post-emergence, 360 h, POST-emergence, rate 250 g/ha, visual score 15 DAA (100%=total damage, 0%=no damage), read-out: Post-emergence herbicidal activity (percentage phytotoxicity) ECHCG POST
[8] = pre-emergence, 480 h, PRE-emergence, rate 250 g/ha, visual score 20 DAA (100%=total damage, 0%=no damage), read-out: Pre-emergence herbicidal activity (percentage phytotoxicity) ECHCG PRE
[9] = post-emergence, 360 h, POST-emergence, rate 250 g/ha, visual score 15 DAA (100%=total damage, 0%=no damage), read-out: Post-emergence herbicidal activity (percentage phytotoxicity) LOLPE POST
[10] = pre-emergence, 480 h, PRE-emergence, rate 250 g/ha, visual score 20 DAA (100%=total damage, 0%=no damage), read-out: Pre-emergence herbicidal activity (percentage phytotoxicity) LOLPE PRE
[11] = post-emergence, 360 h, 250 g/ha, post-emergence, 15 DAA, visual assessment (100%=total damage, 0%=no damage), read-out: Post-emergence herbicidal activity (percentage phytotoxicity) ALOMY POST
[12] = pre-emergence, 480 h, 250 g/ha, pre-emergence, 20 DAA, visual assessment (100%=total damage, 0%=no damage), read-out: Pre-emergence herbicidal activity (percentage phytotoxicity) ALOMY PRE
[13] = post-emergence, 360 h, 250 g/ha, post-emergence, 15 DAA, visual assessment (100%=total damage, 0%=no damage), read-out: Post-emergence herbicidal activity (percentage phytotoxicity) AVEFA POST
[14] = pre-emergence, 480 h, 250 g/ha, pre-emergence, 20 DAA, visual assessment (100%=total damage, 0%=no damage), read-out: Pre-emergence herbicidal activity (percentage phytotoxicity) AVEFA PRE
[15] = post-emergence, 360 h, 250 g/ha, post-emergence, 15 DAA, visual assessment (100%=total damage, 0%=no damage), read-out: Post-emergence herbicidal activity (percentage phytotoxicity) ECHCG POST
[16] = pre-emergence, 480 h, 250 g/ha, pre-emergence, 20 DAA, visual assessment (100%=total damage, 0%=no damage), read-out: Pre-emergence herbicidal activity (percentage phytotoxicity) ECHCG PRE
[17] = post-emergence, 360 h, 250 g/ha, post-emergence, 15 DAA, visual assessment (100%=total damage, 0%=no damage), read-out: Post-emergence herbicidal activity (percentage phytotoxicity) LOLPE POST
[18] = pre-emergence, 480 h, 250 g/ha, pre-emergence, 20 DAA, visual assessment (100%=total damage, 0%=no damage), read-out: Pre-emergence herbicidal activity (percentage phytotoxicity) LOLPE PRE

C=CC(C)NC(=O)CC1CC(=O)C(c2c(C)cc(-n3cc(Cl)cn3)cc2C)C1=O (centres unmarked) [Compound B316]
pest or weed control at 250 g/ha [1, 3]: 90% | pest or weed control at 250 g/ha [1, 4]: 90% | pest or weed control at 250 g/ha (Avena fatua (AVEFA); [5]): 100% | pest or weed control at 250 g/ha (Avena fatua (AVEFA); [6]): 80% | pest or weed control at 250 g/ha [2, 7]: 100% | pest or weed control at 250 g/ha [2, 8]: 90% | pest or weed control at 250 g/ha (Lolium perenne (LOLPE); [9]): 90% | pest or weed control at 250 g/ha (Lolium perenne (LOLPE); [10]): 80%

CCNC(=O)CC1CC(=O)C(c2c(C)cc(-c3ncc(F)cn3)cc2C)C1=O (centres unmarked) [Compound B277]
pest or weed control at 250 g/ha [1, 3]: 100% | pest or weed control at 250 g/ha [1, 4]: 100% | pest or weed control at 250 g/ha (Avena fatua (AVEFA); [5]): 100% | pest or weed control at 250 g/ha (Avena fatua (AVEFA); [6]): 100% | pest or weed control at 250 g/ha [2, 7]: 100% | pest or weed control at 250 g/ha [2, 8]: 100% | pest or weed control at 250 g/ha (Lolium perenne (LOLPE); [9]): 100% | pest or weed control at 250 g/ha (Lolium perenne (LOLPE); [10]): 100%

COc1ccc(CNC(=O)CC2CC(=O)C(c3c(C)cc(-c4ncc(F)cc4F)cc3C)C2=O)cc1 (centres unmarked) [Compound B91]
pest or weed control at 250 g/ha [1, 11]: 100% | pest or weed control at 250 g/ha [1, 12]: 80% | pest or weed control at 250 g/ha (Avena fatua (AVEFA); [13]): 100% | pest or weed control at 250 g/ha (Avena fatua (AVEFA); [14]): 70% | pest or weed control at 250 g/ha [2, 15]: 100% | pest or weed control at 250 g/ha [2, 16]: 80% | pest or weed control at 250 g/ha (Lolium perenne (LOLPE); [17]): 100% | pest or weed control at 250 g/ha (Lolium perenne (LOLPE); [18]): 90%

Cc1cc(-c2ncc(C#N)cn2)cc(C)c1C1C(=O)CC(CC(=O)N2CCOCC2)C1=O (centres unmarked) [Compound B288]
pest or weed control at 250 g/ha [1, 3]: 100% | pest or weed control at 250 g/ha [1, 4]: 80% | pest or weed control at 250 g/ha (Avena fatua (AVEFA); [5]): 90% | pest or weed control at 250 g/ha (Avena fatua (AVEFA); [6]): 80% | pest or weed control at 250 g/ha [2, 7]: 100% | pest or weed control at 250 g/ha [2, 8]: 90% | pest or weed control at 250 g/ha (Lolium perenne (LOLPE); [9]): 90% | pest or weed control at 250 g/ha (Lolium perenne (LOLPE); [10]): 90%

Cc1cc(-c2ccc(F)cn2)cc(C)c1C1C(=O)CC(CC(=O)N(C)C(C)(C)C)C1=O (centres unmarked) [Compound B393]
pest or weed control at 250 g/ha ([1]; post-emergence, 360 h, Rate 250 g/ha, post-emergence, visual assessment 15 DAA, 100%=total damage, 0%=no damage, read-out: Post-emergence herbicidal activity (percentage phytotoxicity) ALOMY POST): 90% | pest or weed control at 250 g/ha ([1]; pre-emergence, 480 h, Rate 250 g/ha, pre-emergence, visual assessment 20 DAA, 100%=total damage, 0%=no damage, read-out: Pre-emergence herbicidal activity (percentage phytotoxicity) ALOMY PRE): 100% | pest or weed control at 250 g/ha (Avena fatua (AVEFA); post-emergence, 360 h, Rate 250 g/ha, post-emergence, visual assessment 15 DAA, 100%=total damage, 0%=no damage, read-out: Post-emergence herbicidal activity (percentage phytotoxicity) AVEFA POST): 100% | pest or weed control at 250 g/ha (Avena fatua (AVEFA); pre-emergence, 480 h, Rate 250 g/ha, pre-emergence, visual assessment 20 DAA, 100%=total damage, 0%=no damage, read-out: Pre-emergence herbicidal activity (percentage phytotoxicity) AVEFA PRE): 90% | pest or weed control at 250 g/ha ([2]; post-emergence, 360 h, Rate 250 g/ha, post-emergence, visual assessment 15 DAA, 100%=total damage, 0%=no damage, read-out: Post-emergence herbicidal activity (percentage phytotoxicity) ECHCG POST): 100% | pest or weed control at 250 g/ha ([2]; pre-emergence, 480 h, Rate 250 g/ha, pre-emergence, visual assessment 20 DAA, 100%=total damage, 0%=no damage, read-out: Pre-emergence herbicidal activity (percentage phytotoxicity) ECHCG PRE): 100% | pest or weed control at 250 g/ha (Lolium perenne (LOLPE); post-emergence, 360 h, Rate 250 g/ha, post-emergence, visual assessment 15 DAA, 100%=total damage, 0%=no damage, read-out: Post-emergence herbicidal activity (percentage phytotoxicity) LOLPE POST): 90% | pest or weed control at 250 g/ha (Lolium perenne (LOLPE); pre-emergence, 480 h, Rate 250 g/ha, pre-emergence, visual assessment 20 DAA, 100%=total damage, 0%=no damage, read-out: Pre-emergence herbicidal activity (percentage phytotoxicity) LOLPE PRE): 100%

C#CCNC(=O)CC1CC(=O)C(c2c(C)cc(/C=C/C)cc2C)C1=O (centres unmarked) [Compound B174]
pest or weed control at 250 g/ha [1, 3]: 100% | pest or weed control at 250 g/ha [1, 4]: 100% | pest or weed control at 250 g/ha (Avena fatua (AVEFA); [5]): 90% | pest or weed control at 250 g/ha (Avena fatua (AVEFA); [6]): 70% | pest or weed control at 250 g/ha [2, 7]: 100% | pest or weed control at 250 g/ha [2, 8]: 90% | pest or weed control at 250 g/ha (Lolium perenne (LOLPE); [9]): 90% | pest or weed control at 250 g/ha (Lolium perenne (LOLPE); [10]): 100%

C/C=C/c1cc(C)c(C2C(=O)CC(CC(N)=O)C2=O)c(CC)c1 (centres unmarked) [Compound B153]
pest or weed control at 250 g/ha [1, 11]: 100% | pest or weed control at 250 g/ha [1, 12]: 90% | pest or weed control at 250 g/ha (Avena fatua (AVEFA); [13]): 100% | pest or weed control at 250 g/ha (Avena fatua (AVEFA); [14]): 70% | pest or weed control at 250 g/ha [2, 15]: 100% | pest or weed control at 250 g/ha [2, 16]: 90% | pest or weed control at 250 g/ha (Lolium perenne (LOLPE); [17]): 100% | pest or weed control at 250 g/ha (Lolium perenne (LOLPE); [18]): 80%

Cc1cc(-c2ncc(Cl)cn2)cc(C)c1C1C(=O)C[C@H](CC(=O)NC(C)(C)C)C1=O (some centres unmarked) [Compound B50]
pest or weed control at 250 g/ha [1, 11]: 100% | pest or weed control at 250 g/ha [1, 12]: 90% | pest or weed control at 250 g/ha (Avena fatua (AVEFA); [13]): 90% | pest or weed control at 250 g/ha (Avena fatua (AVEFA); [14]): 70% | pest or weed control at 250 g/ha [2, 15]: 100% | pest or weed control at 250 g/ha [2, 16]: 100% | pest or weed control at 250 g/ha (Lolium perenne (LOLPE); [17]): 100% | pest or weed control at 250 g/ha (Lolium perenne (LOLPE); [18]): 100%

C=C(C)CNC(=O)CC1CC(=O)C(c2c(C)cccc2CC)C1=O (centres unmarked) [Compound B152]
pest or weed control at 250 g/ha [1, 11]: 100% | pest or weed control at 250 g/ha [1, 12]: 100% | pest or weed control at 250 g/ha (Avena fatua (AVEFA); [13]): 90% | pest or weed control at 250 g/ha (Avena fatua (AVEFA); [14]): 50% | pest or weed control at 250 g/ha [2, 15]: 100% | pest or weed control at 250 g/ha [2, 16]: 100% | pest or weed control at 250 g/ha (Lolium perenne (LOLPE); [17]): 90% | pest or weed control at 250 g/ha (Lolium perenne (LOLPE); [18]): 100%

Cc1cc(C)c(C2C(=O)CC(CC(=O)NC/C=C/Cl)C2=O)c(C)c1 (centres unmarked) [Compound B46]
pest or weed control at 250 g/ha [1, 11]: 90% | pest or weed control at 250 g/ha [1, 12]: 90% | pest or weed control at 250 g/ha (Avena fatua (AVEFA); [13]): 90% | pest or weed control at 250 g/ha (Avena fatua (AVEFA); [14]): 60% | pest or weed control at 250 g/ha [2, 15]: 90% | pest or weed control at 250 g/ha [2, 16]: 90% | pest or weed control at 250 g/ha (Lolium perenne (LOLPE); [17]): 90% | pest or weed control at 250 g/ha (Lolium perenne (LOLPE); [18]): 100%
